Results reported in US9023398B2, “Method for improving the aqueous solubility of poorly-soluble substances” (Kabushiki Kaisha Sangi, priority 2009, dated 2015).
Several values for one entry are separate records, joined by “and”; a condition that tells them apart may be missing. Identical values can stand only once.

What was measured:
[1] = Dissolution test of poorly-soluble substances using distilled water; type: physicochemical
[2] = Dissolution test of poorly-soluble substances using 2nd fluid for disintegration test (pH 6.8) of the Japanese Pharmacopoeia; type: physicochemical
Procedure: From initiation of the test, the mixed solution was stirred with a stirrer having a length of 15 mm. The rotation number of the stirrer was 120 rpm, and all of the tests were conducted in a thermostat at 37±0.5° C. Two types of test solutions, namely, distilled water and 2nd fluid for disintegration test (pH 6.8) of the Japanese Pharmacopoeia were used. As such 2nd fluid for disintegration test of the Japanese Pharmacopoeia, a solution prepared by diluting the 10-fold concentration solution of Kanto Kagaku Co., Ltd. with distilled water was used.
A comparative test was carried out in the same manner as that described above with the exception that a poorly-soluble substance or the like was used in an amount equal to that of a substance with improved aqueous solubility, instead of the substance with improved aqueous solubility.
1 mL of the solution was sampled in an Eppendorf centrifuge tube, 1, 3, 10, 30, 60, 180 and 360 minutes after initiation of the test. The thus sampled solution was centrifuged at 12,000 rpm for 5 minutes. […] In the case of the comparative test, the poorly-soluble substance or the like, which had not been dissolved in the solution, was removed. An aliquot of this supernatant was immediately frozen. The frozen sample was freeze-dried, and it was then used as a sample in the measurement of the amount of the substance with improved aqueous solubility, which had been dissolved in the test solution. The dissolved poorly-soluble substance was measured mainly using a dual wavelength absorption photometer.

[3] = after dissolution test for 360 minutes, distilled water, 37±0.5° C.
[4] = after dissolution test for 360 minutes, Second disintegration test medium (pH 6.8), 37±0.5° C.
[5] = 2nd fluid for disintegration test, elution time 1 min
[6] = 2nd fluid for disintegration test, elution time 3 min
[7] = 2nd fluid for disintegration test, elution time 10 min
[8] = 2nd fluid for disintegration test, elution time 30 min
[9] = 2nd fluid for disintegration test, elution time 180 min
[10] = 2nd fluid for disintegration test, elution time 360 min
[11] = 2nd fluid for disintegration test, elution time 60 min
[12] = 2nd fluid for disintegration test, elution time 120 min

| Dissolved amount [1, 3] [µg/mL] | Dissolved amount [2, 4] [µg/mL] | Dissolved amount ([1]; water, elution time 3 min) [µg/mL] | Dissolved amount ([1]; water, elution time 10 min) [µg/mL] | Dissolved amount ([1]; water, elution time 360 min) [µg/mL] | Dissolved amount [2, 6] [µg/mL] | Dissolved amount [2, 7] [µg/mL] | Dissolved amount [2, 8] [µg/mL] | Dissolved amount [2, 10] [µg/mL] | Dissolved amount ([1]; water, elution time 30 min) [µg/mL] | Dissolved amount [2, 12] [µg/mL] | Dissolved amount ([1]; water, elution time 120 min) [µg/mL] | SMILES | further results |
| --- | --- | --- | --- | --- | --- | --- | --- | --- | --- | --- | --- | --- | --- |
| 141.6 | 169.9 |  |  |  |  |  |  |  |  |  |  | COc1ccc2[nH]c([S+]([O-])Cc3ncc(C)c(OC)c3C)nc2c1 (stereo not drawn) [4-1, Omeprazole] |  |
| 21.3 | 18.4 |  |  |  |  |  |  |  |  |  |  | Nc1nc(N)c2nc(-c3ccccc3)c(N)nc2n1 [6-1, Triamterene] |  |
| 3110.4 | 6552.7 | 2934.9 | 2985.3 | 3110.4 | 1020.4 | 5352.3 | 5963.6 | 8552.7 |  |  |  | CC(=O)Oc1ccccc1C(=O)O [Comparative Example 1-3, Aspirin] | Dissolved amount ([1]; water, elution time 1 min): 1831.9 µg/mL; Dissolved amount ([1]; water, elution time 60 min): 3105.7 µg/mL; Dissolved amount ([1]; water, elution time 180 min): 3108.1 µg/mL; Dissolved amount [2, 5]: 252.7 µg/mL; Dissolved amount [2, 9]: 6458.1 µg/mL |
| 1.2 | 2.8 | 0.6 | 0.7 | 1.2 | 1.4 | 1.8 | 1.0 | 2.8 | 0.9 |  |  | CC(=O)O[C@]1(C(C)=O)CC[C@H]2[C@@H]3C=C(Cl)C4=CC(=O)CC[C@]4(C)[C@H]3CC[C@@]21C [Comparative Example 3-2, Chlormadinone acetate] | Dissolved amount ([1]; water, elution time 1 min): 0.6 µg/mL; Dissolved amount ([1]; water, elution time 60 min): 1.0 µg/mL; Dissolved amount ([1]; water, elution time 180 min): 1.1 µg/mL; Dissolved amount [2, 5]: 1.4 µg/mL; Dissolved amount [2, 11]: 1.0 µg/mL; Dissolved amount [2, 9]: 2.3 µg/mL |
| 9.7 | 28.0 | 2.7 | 3.7 | 9.7 | 14.9 | 19.9 | 21.2 | 28.0 | 6.1 |  |  | CC(C)(Sc1cc(C(C)(C)C)c(O)c(C(C)(C)C)c1)Sc1cc(C(C)(C)C)c(O)c(C(C)(C)C)c1 [Comparative Example 5-3, Probucol] | Dissolved amount ([1]; water, elution time 1 min): 0.7 µg/mL; Dissolved amount ([1]; water, elution time 60 min): 7.6 µg/mL; Dissolved amount ([1]; water, elution time 180 min): 8.3 µg/mL; Dissolved amount [2, 5]: 4.7 µg/mL; Dissolved amount [2, 11]: 21.8 µg/mL; Dissolved amount [2, 9]: 26.8 µg/mL |
|  |  | 7897.9 | 8554.7 | 8691.5 | 8635.7 | 8596.0 | 8929.7 | 8906.2 | 8621.6 |  |  | Cn1c(=O)c2[nH]cnc2n(C)c1=O [Comparative Example 15, Theophylline] | Dissolved amount ([1]; water, elution time 1 min): 7082.2 µg/mL; Dissolved amount ([1]; water, elution time 60 min): 8652.4 µg/mL; Dissolved amount ([1]; water, elution time 180 min): 8672.3 µg/mL; Dissolved amount [2, 5]: 8133.8 µg/mL; Dissolved amount [2, 11]: 9096.5 µg/mL; Dissolved amount [2, 9]: 8906.5 µg/mL |
|  |  | 4621.4 |  | 8948.1 | 7012.3 | 9096.3 |  |  | 6792.2 |  |  | CC1(C)[C@@H](O[C@H]2O[C@H](C(=O)O)[C@@H](O)[C@H](O)[C@H]2O[C@@H]2O[C@H](C(=O)O)[C@@H](O)[C@H](O)[C@H]2O)CC[C@]2(C)[C@H]3C(=O)C=C4[C@@H]5C[C@@](C)(C(=O)O)CC[C@]5(C)CC[C@@]4(C)[C@]3(C)CC[C@@H]12 [Comparative Example 16, Ammonium Glycyrrhizinate] | Dissolved amount ([1]; water, elution time 1 min): 2668.0 µg/mL; Dissolved amount ([1]; water, elution time 60 min): 7374.5 µg/mL; Dissolved amount ([1]; water, elution time 180 min): 8826.1 µg/mL; Dissolved amount [2, 5]: 5113.7 µg/mL |
|  |  | 1416.8 | 1502.6 | 1497.4 | 2286.6 | 2541.7 | 2600.9 | 2410.4 | 1566.8 |  |  | NC(N)=Nc1nc(CSCCC(N)=NS(N)(=O)=O)cs1 [Comparative Example 17, Famotidine] | Dissolved amount ([1]; water, elution time 1 min): 1162.9 µg/mL; Dissolved amount ([1]; water, elution time 60 min): 1565.8 µg/mL; Dissolved amount ([1]; water, elution time 180 min): 1509.8 µg/mL; Dissolved amount [2, 5]: 1980.2 µg/mL; Dissolved amount [2, 11]: 2667.9 µg/mL |
| 6.4 | 8.0 |  |  |  |  |  |  |  |  |  |  | COc1ccc(Cl)cc1C(=O)NCCc1ccc(S(=O)(=O)NC(=O)NC2CCCCC2)cc1 [compound 11, Glibenclamide] |  |
| 656.3 | 1321.9 |  |  |  |  |  |  |  |  |  |  | COc1cc(Cc2cnc(N)nc2N)cc(OC)c1OC [compound 13, Trimethoprim] |  |
| 180.3 | 335.2 |  |  |  |  |  |  |  |  |  |  | CCC1(c2ccccc2)C(=O)NCNC1=O [compound 14, Primidone] |  |
|  |  |  |  |  | 8676.7 |  |  | 8810.0 |  | 9475.2 |  | CN/C(=N/CCSCc1nc[nH]c1C)NC#N [compound 19, Cimetidine] | Dissolved amount ([1]; Dissolution test using water, elution time 10 min): 8160.2 µg/mL; Dissolved amount ([1]; Dissolution test using water, elution time 30 min): 7564.5 µg/mL; Dissolved amount ([1]; Dissolution test using water, elution time 120 min): 7898.3 µg/mL; Dissolved amount ([1]; Dissolution test using water, elution time 360 min): 7166.4 µg/mL |
|  |  | 7.8 | 7.9 | 8.2 | 627.9 | 693.7 | 821.8 | 1114.4 | 8.0 | 928.5 | 8.5 | COc1ccc2c(c1)c(CC(=O)O)c(C)n2C(=O)c1ccc(Cl)cc1 [compound 20, Indomethacin] |  |
|  |  | 26.5 | 23.3 | 24.1 | 17.4 | 42.1 | 50.7 | 32.5 |  | 27.2 |  | O=C1NC(=O)C(c2ccccc2)(c2ccccc2)N1 [compound 21, Phenyloin] |  |
|  |  | 291.2 | 234.8 | 153.0 | 346.6 | 352.2 | 413.9 | 199.3 | 214.3 | 282.1 | 159.5 | NC(=O)N1c2ccccc2C=Cc2ccccc21 [compound 22, Carbamazepine] |  |
|  |  | 1040.6 | 1238.7 | 1212.0 | 1331.6 |  |  | 1654.9 | 1244.8 | 1721.6 | 1251.4 | CC(=O)Nc1nnc(S(N)(=O)=O)s1 [compound 23, Acetazolamide] |  |
|  |  | 526.2 | 805.6 | 996.5 | 2311.1 |  | 2525.0 |  | 931.2 |  | 994.9 | CC(=O)SC[C@@H](C)C(=O)N1CCC[C@H]1C(=O)N[C@@H](Cc1ccccc1)C(=O)O [compound 24, Alacepril] |  |
|  |  | 2973.2 | 3880.0 | 6207.6 | 4613.3 | 5425.9 | 5825.0 | 6133.3 | 4558.1 | 7003.0 | 6034.2 | CCS(=O)(=O)CCn1c([N+](=O)[O-])cnc1C [compound 25, Tinidazole] |  |
|  |  | 455.9 | 523.1 | 395.5 | 688.7 | 767.1 | 744.1 | 694.7 | 492.3 | 721.6 | 470.7 | CCn1cc(C(=O)O)c(=O)c2cc(F)c(N3CCNCC3)cc21 [compound 27, Norfloxacin] |  |
|  |  | 635.0 | 861.6 | 846.1 |  | 4984.2 | 5103.6 | 6044.7 | 944.7 | 5904.1 | 927.7 | CC[C@H]1OC(=O)[C@H](C)[C@@H](O[C@H]2C[C@@](C)(OC)[C@@H](O)[C@H](C)O2)[C@H](C)[C@@H](O[C@@H]2O[C@H](C)C[C@H](N(C)C)[C@H]2O)[C@](C)(O)C[C@@H](C)C(=O)[C@H](C)[C@@H](O)[C@]1(C)O [compound 28, Erythromycin] |  |
|  |  |  |  |  |  |  |  |  |  |  |  | CNC[C@H](O)c1ccc(O)c(O)c1 [compound 29, Epinephrine] | Dissolved amount [2]: 2001.7 µg/mL and 2061.7 µg/mL and 2129.3 µg/mL and 2102.5 µg/mL |

| SMILES | Dissolved amount [1, 3] [µg/mL] | Dissolved amount [2, 4] [µg/mL] | Dissolved amount ([1]; water, elution time 3 min) [µg/mL] | Dissolved amount ([1]; water, elution time 10 min) [µg/mL] | Dissolved amount ([1]; water, elution time 360 min) [µg/mL] | Dissolved amount [2, 6] [µg/mL] | Dissolved amount [2, 7] [µg/mL] | Dissolved amount [2, 8] [µg/mL] | Dissolved amount [2, 10] [µg/mL] | Dissolved amount ([1]; water, elution time 30 min) [µg/mL] | Dissolved amount [2, 12] [µg/mL] | Dissolved amount ([1]; water, elution time 120 min) [µg/mL] | further results |
| --- | --- | --- | --- | --- | --- | --- | --- | --- | --- | --- | --- | --- | --- |
| O=[N+]([O-])O[C@H]1CO[C@H]2[C@@H]1OC[C@H]2O[N+](=O)[O-] [compound 30, Isosorbide Dinitrate] |  |  |  |  |  |  | 7154.4 | 7134.1 | 7148.8 | 3490.4 |  | 3516.8 |  |
